This data set is described as follows: recombinant UMI read abundance after kanamycin selection (control-corrected) (log10(CPM+1)); higher = more efficient recombination; extreme values may be limits of the assay; sequences stand for … in AGTGCAGAGAAAATCGGCCAGTTTTCTCTGCCTGCAGTCCGCATGCCGTGGGACCCCTTGGGTTCTAACCTGTTGCCTAGATTTATGCAGCGGACTGCCTTTCTCCCAAAGTGATAAACCGG…AGGTTGGTTTCACT; site = the 11-nt donor. The method in brief: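 Each donor and donor-binding-loop pair was tracked by a 12-nt UMI on a plasmid carrying a promoterless kanamycin gene. With a second plasmid supplying a fixed target and T7-inducible IS621 bridge recombinase, the pool was plated in Escherichia coli on IPTG (0.07 mM) plus kanamycin or unselected. Sequencing of recombinant UMIs across the donor–target junction gave counts expressed as log10(CPM+1) after replicate averaging and control-derived scaling.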
With “CCAGGTTCATGGACCGGTTTTCCCGGTAATCCGTATTTGTC (site CCAGGTTCTGA)”, the “recombinant UMI read abundance (log10)” value stood at 2.24.

On to “CCAGTCACATGGACCGGTTTTCCCGGTAATCCGTATTTGGG (site CAAGTCACTCC)”, for which the “recombinant UMI read abundance (log10)” value worked out at 0.0155.

On to “CCAGTCACATGGACCGGTTTTCCCGGTAATCCGTATTTGGG (site CCAGTCACTCC)”, for which the “recombinant UMI read abundance (log10)” value was 0.026.

Regarding “CCAGTCACATGGACCGGTTTTCCCGGTAATCCGTATTTGGG (site CGAGTCACTCC)”, the “recombinant UMI read abundance (log10)” value stood at 0.00845.

In the case of “CCAGTCACATGGACCGGTTTTCCCGGTAATCCGTATTTGGG (site CTAGTCACTCC)”, the “recombinant UMI read abundance (log10)” value is 0.0251.

Consider “CCAGTTGCATGGACCGGTTTTCCCGGTAATCCGTATTTGAT (site CCAGATGCTAT)”, for which the “recombinant UMI read abundance (log10)” value came out at 0.00647.

On to “CCAGTTGCATGGACCGGTTTTCCCGGTAATCCGTATTTGAT (site CCAGCTGCTAT)”, for which the “recombinant UMI read abundance (log10)” value amounted to 0.249.

Consider “CCAGTTGCATGGACCGGTTTTCCCGGTAATCCGTATTTGAT (site CCAGGTGCTAT)”, for which the “recombinant UMI read abundance (log10)” value was 0.00995.

For the sequence “CCAGTTGCATGGACCGGTTTTCCCGGTAATCCGTATTTGAT (site CCAGTTGCTAT)”, the “recombinant UMI read abundance (log10)” value came to 1.42.

Turning to “CCATAAACATGGACCGGTTTTCCCGGTAATCCGTATTTGCT (site CCATAAACTAG)”, the “recombinant UMI read abundance (log10)” value worked out at 1.06.

As for “CCATACCCATGGACCGGTTTTCCCGGTAATCCGTATTTGCG (site CCATACCCTCG)”, the “recombinant UMI read abundance (log10)” value worked out at 0.287.

On to “CCATACCCATGGACCGGTTTTCCCGGTAATCCGTATTTGTG (site CCATACCCTCA)”, for which the “recombinant UMI read abundance (log10)” value turned out to be 0.00448.

As for “CCATCGACATGGACCGGTTTTCCCGGTAATCCGTATTTGTT (site CAATCGACTAA)”, the “recombinant UMI read abundance (log10)” value came to 0.00346.

Turning to “CCATCGACATGGACCGGTTTTCCCGGTAATCCGTATTTGTT (site CCATCGACTAA)”, the “recombinant UMI read abundance (log10)” value was 0.266.

Turning to “CCATCGACATGGACCGGTTTTCCCGGTAATCCGTATTTGTT (site CGATCGACTAA)”, the “recombinant UMI read abundance (log10)” value turned out to be 0.

As to “CCATCGACATGGACCGGTTTTCCCGGTAATCCGTATTTGTT (site CTATCGACTAA)”, the “recombinant UMI read abundance (log10)” value was found to be 0.0452.

For “CCATGAGCATGGACCGGTTTTCCCGGTAATCCGTATTTGAG (site CCATGAGCTCT)”, the “recombinant UMI read abundance (log10)” value was 0.662.

For the sequence “CCATGATCATGGACCGGTTTTCCCGGTAATCCGTATTTGAA (site CCATGATCTTT)”, the “recombinant UMI read abundance (log10)” value worked out at 1.02.

As for “CCATTATCATGGACCGGTTTTCCCGGTAATCCGTATTTGCT (site CCATTATCTAG)”, the “recombinant UMI read abundance (log10)” value amounted to 1.49.

For the sequence “CCATTATCATGGACCGGTTTTCCCGGTAATCCGTATTTGCT (site CGATCATCTAG)”, the “recombinant UMI read abundance (log10)” value came to 0.

As to “CCATTCTCATGGACCGGTTTTCCCGGTAATCCGTATTTGGG (site CCATTCTCTCC)”, the “recombinant UMI read abundance (log10)” value was 0.

Take “CCATTCTCATGGACCGGTTTTCCCGGTAATCCGTATTTGGG (site CCCTTCTCTCC)”: the “recombinant UMI read abundance (log10)” value was 0.00367.

As for “CCATTCTCATGGACCGGTTTTCCCGGTAATCCGTATTTGGG (site CCGTTCTCTCC)”, the “recombinant UMI read abundance (log10)” value is 0.00306.

For the sequence “CCATTCTCATGGACCGGTTTTCCCGGTAATCCGTATTTGGG (site CCTTTCTCTCC)”, the “recombinant UMI read abundance (log10)” value is 0.0196.

On to “CCATTTACATGGACCGGTTTTCCCGGTAATCCGTATTTGCT (site CCATTTACTAG)”, for which the “recombinant UMI read abundance (log10)” value turned out to be 0.933.

Regarding “CCATTTACATGGACCGGTTTTCCCGGTAATCCGTATTTGCT (site CCCTTTACTAG)”, the “recombinant UMI read abundance (log10)” value worked out at 0.

For “CCATTTACATGGACCGGTTTTCCCGGTAATCCGTATTTGCT (site CCGTTTACTAG)”, the “recombinant UMI read abundance (log10)” value turned out to be 0.

As to “CCATTTACATGGACCGGTTTTCCCGGTAATCCGTATTTGCT (site CCTTTTACTAG)”, the “recombinant UMI read abundance (log10)” value came out at 0.00937.

As for “CCCAACCCATGGACCGGTTTTCCCGGTAATCCGTATTTGTG (site CCCAACCCTCA)”, the “recombinant UMI read abundance (log10)” value stood at 0.0205.

Turning to “CCCACCGCATGGACCGGTTTTCCCGGTAATCCGTATTTGCC (site CCCACCGCTGG)”, the “recombinant UMI read abundance (log10)” value was determined as 0.815.

“CCCAGATCATGGACCGGTTTTCCCGGTAATCCGTATTTGGA (site CCCAGATCTTC)”: the “recombinant UMI read abundance (log10)” value stood at 0.0263.

Take “CCCAGGACATGGACCGGTTTTCCCGGTAATCCGTATTTGCG (site CCCAGGACTCG)”: the “recombinant UMI read abundance (log10)” value was determined as 0.893.

With “CCCAGGGCATGGACCGGTTTTCCCGGTAATCCGTATTTGTG (site CCCAGGGCTCA)”, the “recombinant UMI read abundance (log10)” value came out at 0.475.

As to “CCCATATCATGGACCGGTTTTCCCGGTAATCCGTATTTGCC (site CCCATATCTGA)”, the “recombinant UMI read abundance (log10)” value stood at 0.

The values are drawn from the supplement of paper PMC11208160.
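Note: IS621 bridge recombinase in Escherichia coli cells against a fixed T5 target plasmid.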
